Laboratory results taken from US20060069132A1, “Azolecarboxamide herbicides” (priority 2004, published 2006).

Experiments:
woolly cupgrass = assay: Test C pre-/postemergence herbicide test; type: in vivo, Eriochloa villosa; details: preemergence
In short: (§1)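 Seeds were planted and sprayed preemergence with test chemicals in a non-phytotoxic solvent mixture containing surfactant; postemergence treatments went onto plants 2 to 18 cm tall (1- to 4-leaf stage). After 12 to 14 days in a greenhouse, injury was rated visually against untreated controls on a 0–100 scale.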

giant foxtail [1] = assay: Test C pre-/postemergence herbicide test; type: in vivo, Setaria faberi; details: preemergence
In short: as §1

yellow nutsedge = assay: Test C pre-/postemergence herbicide test; type: in vivo, Cyperus esculentus; details: preemergence
In short: as §1

barnyardgrass = assay: Test C flooded paddy test; type: in vivo, Echinochloa crus-galli; details: for Plant response rating, Barnyardgrass: 500 g ai/ha, visual rating after 12 to 14 days
In short: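 Postemergence sprays were applied to plants 2 to 18 cm tall (1- to 4-leaf stage); in the flooded paddy test, barnyardgrass was grown to the 2-leaf stage. After 12 to 14 days in a greenhouse, injury was visually rated against untreated controls on a 0–100 scale (100 = complete control).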

large crabgrass = assay: Test A pre-/postemergence herbicide test; type: in vivo, Digitaria sanguinalis
In short: (§2)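 Seeds sown in sandy loam received a preemergence directed soil spray of compound in non-phytotoxic solvent with surfactant; postemergence plants (2–10 cm, one- to two-leaf stage) were sprayed to runoff at the same time. After ~10 days in greenhouse, injury was rated visually versus untreated controls (0 = no effect, 100 = complete control).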

morningglory = assay: Test C pre-/postemergence herbicide test; type: in vivo, Ipomoea coccinea; set-up: key to Plant response rating, Morningglory: 0 = no effect, 100 = complete control; details: preemergence
In short: as §1

giant foxtail [2] = assay: Test A pre-/postemergence herbicide test; type: in vivo, Setaria faberi
In short: as §2

ducksalad = assay: Test C flooded paddy test; type: in vivo, Heteranthera limosa; details: for Plant response rating, Ducksalad: 500 g ai/ha, visual rating after 12 to 14 days
soybean = assay: Test C pre-/postemergence herbicide test; type: in vivo, Glycine max; details: preemergence
In short: as §1

velvetleaf = assay: Test A pre-/postemergence herbicide test; type: in vivo, Abutilon theophrasti
In short: as §2

[3] = 125 g ai/ha, scale 0 (no effect) to 100 (complete control), visual, 12 to 14 days
[4] = 62 g ai/ha, scale 0 to 100 (0 no effect, 100 complete control)
[5] = 125 g ai/ha, scale of 0 to 100, 0 is no effect, 100 is complete control
[6] = 250 g ai/ha, scale of 0 to 100, 0 is no effect, 100 is complete control
[7] = scale 0 to 100 (0 no effect, 100 complete control)
[8] = Postemergence, 500 g ai/ha, 0 to 100 scale, 0 no effect, 100 complete control
[9] = Postemergence, 2000 g ai/ha, 0 to 100 scale, 0 no effect, 100 complete control
[10] = Preemergence, 500 g ai/ha, visual rating, 0 to 100 scale (0 no effect, 100 complete control)
[11] = Preemergence, 2000 g ai/ha, visual rating, 0 to 100 scale (0 no effect, 100 complete control)
[12] = 125 g ai/ha, scale 0 to 100 (0 no effect, 100 complete control)
[13] = preemergence, 500 g ai/ha, visual injury, 0 to 100 scale (0 no effect, 100 complete control)
[14] = 250 g ai/ha, scale 0 to 100 (0 no effect, 100 complete control), visual, 12 to 14 days
[15] = Preemergence, 2000 g ai/ha, 0 to 100 scale, 0 no effect, 100 complete control
[16] = 500 g ai/ha, scale 0 to 100 (0 no effect, 100 complete control), visual, 12 to 14 days

CC(=O)c1cccc(NC(=O)c2cc(C(C)(C)C)nn2CCF)c1 [Compound 128]
Plant response rating (0 = no effect, 100 = complete control), Cupgrass, Woolly (woolly cupgrass; 62 g ai/ha): 10
Plant response rating, Cupgrass, Woolly (woolly cupgrass; [3]): 20
Plant response rating (0 = no effect, 100 = complete control), Foxtail, Giant (giant foxtail [1]; 62 g ai/ha): 10
Plant response rating, Foxtail, Giant (giant foxtail [1]; [3]): 10
Plant response rating, Nutsedge, Yellow (yellow nutsedge; 16 g ai/ha, scale 0 to 100, last section of Table C): 10
Plant response rating, Nutsedge, Yellow (yellow nutsedge; 31 g ai/ha, scale 0 to 100, last section of Table C): 70
Plant response rating, Nutsedge, Yellow (yellow nutsedge; [3]): 70
Barnyardgrass plant response rating (barnyardgrass; [4]): 30
Barnyardgrass plant response rating (barnyardgrass; [5]): 35
Barnyardgrass plant response rating (barnyardgrass; [6]): 60
Plant response rating, Barnyardgrass (barnyardgrass; [7]): 65
Crabgrass, Large plant response rating (large crabgrass; [8]): 60
Plant response rating, Crabgrass, Large (large crabgrass; [9]): 70
Crabgrass, Large plant response rating (large crabgrass; [10]): 90
Crabgrass, Large plant response rating (large crabgrass; [11]): 100
Plant response rating (0 = no effect, 100 = complete control), Morningglory (morningglory; 62 g ai/ha): 30
Plant response rating, Morningglory (morningglory; [3]): 30
Foxtail, Giant plant response rating (giant foxtail [2]; [8]): 45
Plant response rating, Foxtail, Giant (giant foxtail [2]; [9]): 60
Foxtail, Giant plant response rating (giant foxtail [2]; [10]): 15
Foxtail, Giant plant response rating (giant foxtail [2]; [11]): 65
Ducksalad plant response rating (ducksalad; [4]): 80
Ducksalad plant response rating (ducksalad; [12]): 95
Ducksalad plant response rating (ducksalad; [6]): 95
Plant response rating, Ducksalad (ducksalad; [7]): 95
Plant response rating (0 = no effect, 100 = complete control), Soybean (soybean; 62 g ai/ha): 20
Plant response rating, Soybean (soybean; [3]): 20
Velvetleaf plant response rating (velvetleaf; [8]): 20
Plant response rating, Velvetleaf (velvetleaf; [9]): 35
Velvetleaf plant response rating (velvetleaf; [11]): 85
Velvetleaf plant response rating (velvetleaf; [13]): 75

CCn1nc(C(C)(C)C)cc1C(=O)Nc1cccc(C(=O)NCC2CC2)c1 [Compound 62]
Plant response rating, Cupgrass, Woolly (woolly cupgrass; 31 g ai/ha, scale 0 to 100): 0
Plant response rating (0 = no effect, 100 = complete control), Cupgrass, Woolly (woolly cupgrass; 62 g ai/ha): 0
Plant response rating, Cupgrass, Woolly (woolly cupgrass; [3]): 0
Plant response rating, Cupgrass, Woolly (woolly cupgrass; [14]): 20
Plant response rating, Foxtail, Giant (giant foxtail [1]; 31 g ai/ha, scale 0 to 100): 5
Plant response rating (0 = no effect, 100 = complete control), Foxtail, Giant (giant foxtail [1]; 62 g ai/ha): 15
Plant response rating, Foxtail, Giant (giant foxtail [1]; [3]): 65
Plant response rating, Foxtail, Giant (giant foxtail [1]; [14]): 85
Plant response rating, Nutsedge, Yellow (yellow nutsedge; 31 g ai/ha, scale 0 to 100): 0
Plant response rating (0 = no effect, 100 = complete control), Nutsedge, Yellow (yellow nutsedge; 62 g ai/ha): 0
Plant response rating, Nutsedge, Yellow (yellow nutsedge; [3]): 10
Plant response rating, Nutsedge, Yellow (yellow nutsedge; [14]): 40
Barnyardgrass plant response rating (barnyardgrass; [4]): 5
Barnyardgrass plant response rating (barnyardgrass; [5]): 10
Barnyardgrass plant response rating (barnyardgrass; [6]): 30
Plant response rating, Barnyardgrass (barnyardgrass; [7]): 55
Plant response rating, Crabgrass, Large (large crabgrass; [8]): 25
Plant response rating, Crabgrass, Large (large crabgrass; [9]): 60
Crabgrass, Large plant response rating (large crabgrass; [10]): 70
Crabgrass, Large plant response rating (large crabgrass; [15]): 85
Plant response rating, Morningglory (morningglory; [3]): 0
Plant response rating, Morningglory (morningglory; [14]): 10
Plant response rating, Foxtail, Giant (giant foxtail [2]; [8]): 55
Plant response rating, Foxtail, Giant (giant foxtail [2]; [9]): 85
Foxtail, Giant plant response rating (giant foxtail [2]; [10]): 75
Foxtail, Giant plant response rating (giant foxtail [2]; [15]): 100
Ducksalad plant response rating (ducksalad; [4]): 25
Ducksalad plant response rating (ducksalad; [5]): 35
Ducksalad plant response rating (ducksalad; [6]): 90
Plant response rating, Ducksalad (ducksalad; [7]): 90
Plant response rating, Soybean (soybean; 31 g ai/ha, scale 0 to 100): 0
Plant response rating (0 = no effect, 100 = complete control), Soybean (soybean; 62 g ai/ha): 0
Plant response rating, Soybean (soybean; [3]): 0
Plant response rating, Soybean (soybean; [14]): 30
Plant response rating, Velvetleaf (velvetleaf; [9]): 20
Velvetleaf plant response rating (velvetleaf; [10]): 70
Velvetleaf plant response rating (velvetleaf; [11]): 95

CCNC(=O)c1ccc(F)c(NC(=O)C2CC(C(C)(C)C)=NN2CC)c1 (racemic) [Compound 269]
Plant response rating, Cupgrass, Woolly (woolly cupgrass; 62 g ai/ha, scale 0 to 100): 10
Plant response rating, Cupgrass, Woolly (woolly cupgrass; [3]): 40
Plant response rating, Cupgrass, Woolly (woolly cupgrass; 250 g ai/ha, scale 0-100): 60
Plant response rating, Cupgrass, Woolly (woolly cupgrass; [16]): 85
Plant response rating, Foxtail, Giant (giant foxtail [1]; 62 g ai/ha, scale 0 to 100): 50
Plant response rating, Foxtail, Giant (giant foxtail [1]; [3]): 90
Plant response rating, Foxtail, Giant (giant foxtail [1]; 250 g ai/ha, scale 0-100): 100
Plant response rating, Foxtail, Giant (giant foxtail [1]; [16]): 100
Plant response rating, Nutsedge, Yellow (yellow nutsedge; 62 g ai/ha, scale 0 to 100): 5
Plant response rating, Nutsedge, Yellow (yellow nutsedge; [3]): 10
Plant response rating, Nutsedge, Yellow (yellow nutsedge; 250 g ai/ha, scale 0-100): 40
Plant response rating, Nutsedge, Yellow (yellow nutsedge; [16]): 60
Barnyardgrass plant response rating (barnyardgrass; [4]): 45
Barnyardgrass plant response rating (barnyardgrass; [12]): 65
Barnyardgrass plant response rating (barnyardgrass; [6]): 75
Plant response rating, Barnyardgrass (barnyardgrass; [7]): 90
Crabgrass, Large plant response rating (large crabgrass; [8]): 35
Plant response rating, Crabgrass, Large (large crabgrass; [9]): 80
Crabgrass, Large plant response rating (large crabgrass; [11]): 100
Crabgrass, Large plant response rating (large crabgrass; [13]): 65
Plant response rating, Morningglory (morningglory; 62 g ai/ha, scale 0 to 100): 0
Plant response rating, Morningglory (morningglory; [3]): 5
Plant response rating, Morningglory (morningglory; 250 g ai/ha, scale 0-100): 10
Plant response rating, Morningglory (morningglory; [16]): 40
Foxtail, Giant plant response rating (giant foxtail [2]; [8]): 35
Plant response rating, Foxtail, Giant (giant foxtail [2]; [9]): 65
Foxtail, Giant plant response rating (giant foxtail [2]; [11]): 100
Foxtail, Giant plant response rating (giant foxtail [2]; [13]): 100
Ducksalad plant response rating (ducksalad; 62 g ai/ha, scale 0 to 100): 55
Ducksalad plant response rating (ducksalad; [12]): 80
Ducksalad plant response rating (ducksalad; [6]): 80
Plant response rating, Ducksalad (ducksalad; [7]): 85
Plant response rating, Soybean (soybean; 62 g ai/ha, scale 0 to 100): 0
Plant response rating, Soybean (soybean; 250 g ai/ha, scale 0-100): 50
Plant response rating, Soybean (soybean; [16]): 60
Velvetleaf plant response rating (velvetleaf; [8]): 25
Plant response rating, Velvetleaf (velvetleaf; [9]): 30
Velvetleaf plant response rating (velvetleaf; [11]): 100
Velvetleaf plant response rating (velvetleaf; [13]): 40
